Values quoted from earlier work in patent US5786344A, “Camptothecin drug combinations and methods with reduced side effects” (priority 1995, dated 1998).
Entries after “also recorded” stand apart in the source; their conditions may differ. Where a name gives a salt, the structure may show the parent alone. Read-outs that look alike come from different tables or passages of the source. *1 amine or outer side, *2 acyl side, *3 side chain or, on linkers, in order; H or OH if unused. Where a SMILES comes first, the peptide text is derived from it. Bridges are numbered along the chain shown (N, C = ends). Roman numbers before positions name the chains, in order. [ ]: non-standard residue; d: D form. Actinocin(9to1) = Cc1c2oc3c(C)ccc(C(=O)[*:1])c3nc-2c(C(=O)[*:2])c(N)c1=O; NMeV = CN[C@H](C(=O)O)C(C)C; Sar = CNCC(=O)O

Assays:
tumors = conditions: preclinical and clinical tumors; cited from earlier work
p-glycoprotein [1] = conditions: cited from earlier work
[2] = cited from earlier work
plasma proteins = conditions: cited from earlier work
[3] = test system: human and murine cell lines; conditions: 4-6 μM; cited from earlier work
[4] = test system: multidrug resistant (MDR) cells; conditions: cited from earlier work
[5] = cited from earlier work; for clinical toxicity: human, in vivo
p-glycoprotein [6] = conditions: renal tubules; cited from earlier work
[7] = test system: outwardly-rectifying chloride channel; conditions: 50 μM; cited from earlier work
p-glycoprotein [8] = conditions: cited from earlier work; remark: listed apart in the source
p-glycoprotein [9] = conditions: cited from earlier work; remark: listed apart in the source
[10] = test system: breast, ovarian, non-small cell lung, colorectal, gastric and renal cell carcinomas; conditions: in vitro; cited from earlier work
[11] = plasma/serum/terminal or elimination half-life

Structure (SMILES): CC[C@@]1(O)C(=O)OCc2c1cc1n(c2=O)Cc2cc3c(N)cccc3nc2-1 [9-AC, 9-amino-20(s)-camptothecin]
- antitumor activity (tumors): significant activity of 9-AC against colon cancer

Structure (SMILES): COc1ccc([C@@H]2Sc3ccccc3N(CCN(C)C)C(=O)[C@@H]2OC(C)=O)cc1 [Diltiazem, benzothiazepin-4(5H)-one, 3-(acetyloxy)-5-[2-(dimethylamino)ethyl]-2,3-dihydro-2-(4-methoxyphenyl)-,(+) -cis-, monohydrochloride]
- inhibition of / interaction with p-glycoprotein (p-glycoprotein [1]): p-glycoprotein inhibitor
- bioavailability / dose reaching the systemic circulation ([2]; human, in vivo, po): 40-60%
- oral absorption ([2]; human, in vivo, po): 80%
- excreted unchanged (urine) ([2]; human, in vivo): Less than 4%
- half-life ([2]; human, in vivo): about 4 hr
- plasma protein binding (plasma proteins; plasma): 70-80%

Structure (SMILES): CC/C(=C(\c1ccccc1)c1ccc(OCCNC)cc1)c1ccccc1 [N-desmethyltamoxifen]
- enhancement of intracellular concentration of cytotoxic drugs [3]: three-fold to ten-fold
- concentration ([2]; read-out: plasma level, oral tamoxifen 150 mg/m2 twice a day after 400 mg/m2 loading dose): 6000 nM

Structure (SMILES): CCOC(=O)C1=C(C)NC(C)=C(C(=O)OC)C1c1cccc([N+](=O)[O-])c1 (stereo not drawn) [Nitrendipine, 3,5-Pyridinedicarboxylic acid, 1,4-dihydro-2,6-dimethyl-4-(3-nitrophenyl)-, ethyl methyl ester]
- bioavailability / dose reaching the systemic circulation ([2]; human, in vivo, po): 10-22%
- half-life, average or usual ([2]; human, in vivo): ~12 h
- plasma protein binding (plasma proteins; plasma): About 98%

Structure (SMILES): CC(C)NCC(O)COc1cccc2ccccc12 (stereo not drawn) [Propranolol]
- reversal of drug resistance [4]: partially reverse drug resistance
- bioavailability / dose reaching the systemic circulation ([2]; human, in vivo, po): about 25%
- inter-individual variability in plasma concentrations ([2]; human, in vivo, po): approximately 20 fold
- CNS / blood-brain barrier penetration ([2]; human, in vivo): readily enters the CNS
- volume of distribution ([2]; human, in vivo): 4 L/kg
- oral absorption ([2]; oral): almost complete absorbed
- plasma protein binding (plasma proteins; plasma): Approximately 90%

Structure (SMILES): CC(C)(C)c1ccc(C(O)CCCN2CCC(C(O)(c3ccccc3)c3ccccc3)CC2)cc1 (stereo not drawn) [Terfenadine, 1-Piperidinebutanol, α-[4-(1,1-dimethylethyl)phenyl]-4-(hydroxydiphenylmethyl)-]
- drug accumulation and efflux in MDR lines ([4]; MDR lines): augments the accumulation of doxorubicin and inhibits the effluxof rhodamine 123
- drug accumulation or efflux in sensitive cells ([4]; sensitive cells): no effect
- peak plasma levels ([2]; human, in vivo, po): 1.5 to 4.5 ng/mL
- distribution half-life ([2]; human, in vivo): 3.5 h
- half-life ([2]; human, in vivo): 16 to 23 h
- oral absorption ([2]; oral): absorbed rapidly and almost completely
- clinical toxicity [5]: relatively low toxicity profile
- plasma protein binding (plasma proteins; plasma): 97%

Structure (SMILES): CSc1ccc2c(c1)N(CCC1CCCCN1C)c1ccccc1S2 (stereo not drawn) [Thioridazine, 10H-Phenothiazine, 10-[2-(1-methyl-2-piperidinyl)ethyl]-2-(methylthio)-]
- half-life, early phase ([2]; human, in vivo): 4 to 10 h
- half-life, late phase ([2]; human, in vivo): 26 to 36 h
- plasma protein binding (plasma proteins; plasma): 96-99%

Structure (SMILES): Cc1c2oc3c(C)ccc(C(=O)N[C@@H]4C(=O)N[C@H](C(C)C)C(=O)N5CCC[C@H]5C(=O)N(C)CC(=O)N(C)[C@@H](C(C)C)C(=O)O[C@@H]4C)c3nc-2c(C(=O)N[C@@H]2C(=O)N[C@H](C(C)C)C(=O)N3CCC[C@H]3C(=O)N(C)CC(=O)N(C)[C@@H](C(C)C)C(=O)O[C@@H]2C)c(N)c1=O [actinomycin D] (I: T[dV]P[Sar][NMeV] / II: T[dV]P[Sar][NMeV]; ester I:1-I:C, II:1-II:C; linker I:N-II:N via Actinocin(9to1))
- inhibition of / interaction with p-glycoprotein (p-glycoprotein [1]): inhibitor of p-glycoprotein
- inhibition of p-glycoprotein-mediated transport (p-glycoprotein [6]): inhibitors
- CNS / blood-brain barrier penetration ([2]; human, in vivo): does not pass the blood-brain barrier
- excreted intact into the bile ([2]; human, in vivo): Half of the dose
- urinary excretion ([2]; human, in vivo): 10%
- half-life [2, 11]: about 36 hr

Structure (SMILES): CC(C)(Oc1ccc(Cl)cc1)C(=O)O [clofibric acid]
- fraction metabolized ([2]; human, in vivo): About 60%
- half-life ([2]; human, in vivo): 6 to 25 h
- half-life in anuria ([2]; human, in vivo): over 100 hr
- half-life, average or usual ([2]; human, in vivo): 11 h
- plasma protein binding (plasma proteins): bound strongly to plasma proteins

Structure (SMILES): COc1cc2c(c(OC)c1OC)-c1ccc(OC)c(=O)cc1[C@@H](NC(C)=O)CC2 [colchicine]
- inhibition of / interaction with p-glycoprotein (p-glycoprotein [1]): inhibiting p-glycoprotein; also recorded: binding to p-glycoprotein
- block of chloride channel / transport associated with p-glycoprotein [7]: blocked
- inhibition of p-glycoprotein-mediated transport (p-glycoprotein [6]): inhibitors
- oral absorption ([2]; oral): well-absorbed

Structure (SMILES): COc1cccc2c1C(=O)c1c(O)c3c(c(O)c1C2=O)C[C@@](O)(C(C)=O)C[C@@H]3O[C@H]1C[C@H](N)[C@H](O)[C@H](C)O1 [daunomycin]
- inhibition of / interaction with p-glycoprotein (p-glycoprotein [1]): p-glycoprotein inhibitor
- block of chloride channel / transport associated with p-glycoprotein [7]: blocked

Structure (SMILES): COc1cccc2c1C(=O)c1c(O)c3c(c(O)c1C2=O)C[C@@](O)(C(C)=O)C[C@@H]3O[C@H]1C[C@H](N)[C@H](O)[C@H](C)O1 [daunorubicin, hydrochloride]
- inhibition of amphiphilic cation transport (p-glycoprotein [8]; hydrochloride): inhibited
- inhibition of amphiphilic cation transport (p-glycoprotein [8]; listed as Daunorubicin, hydrochloride): inhibit
- distribution half-life ([2]; human, in vivo, iv): 0.75 h
- oral absorption ([2]; human, in vivo, po): Oral absorption is poor
- biliary secretion ([2]; human, in vivo): ~40%
- half-life [2, 11]: about 19 hr

Structure (SMILES): C=C[C@H]1C[N@@]2CC[C@H]1C[C@@H]2[C@@H](O)c1ccnc2ccc(OC)cc12 [quinidine]
- inhibition of / interaction with p-glycoprotein (p-glycoprotein [1]): binds to p-glycoprotein and inhibits photo-labeling
- inhibition of amphiphilic cation transport (p-glycoprotein [8]): inhibit
- inhibition of digoxin transport (p-glycoprotein [9]): inhibited digoxin transport
- oral absorption ([2]; human, in vivo, po): 90%
- elimination by hepatic biotransformation ([2]; human, liver): 50-60%

Structure (SMILES): COC(=O)[C@H]1[C@H]2C[C@@H]3c4[nH]c5cc(OC)ccc5c4CCN3C[C@H]2C[C@@H](OC(=O)c2cc(OC)c(OC)c(OC)c2)[C@@H]1OC [reserpine, Yohimban-16-carboxylic acid, 11,17-dimethoxy-18-[(3,4,5-trimethoxybenzoyl)oxy]-, methyl ester, (3β,16β,17α,18β,20α)-]
- inhibition of / interaction with p-glycoprotein (p-glycoprotein [1]): binds to p-glycoprotein and inhibits photo-labeling
- inhibition of photoaffinity labeling of p-glycoprotein (p-glycoprotein [1]; photolabeling): showed inhibition
- inhibition of digoxin transport (p-glycoprotein [9]): inhibited
- oral absorption ([2]; human, in vivo, po): absorbed poorly and erratically
- persistence of effects after discontinuation ([5]; oral): ≤ 4 weeks

Structure (SMILES): CC/C(=C(\c1ccccc1)c1ccc(OCCN(C)C)cc1)c1ccccc1 [tamoxifen]
- enhancement of intracellular concentration of cytotoxic drugs [3]: three-fold to ten-fold
- bioavailability / dose reaching the systemic circulation ([2]; human, in vivo, po): 25-100%
- half-life, single dose ([2]; human, in vivo): 18 h
- half-life, steady state ([2]; human, in vivo): 7 h
- dose-limiting toxicity ([5]; oral 150 mg/m2 twice a day): without dose-limiting toxicity

Structure (SMILES): CC(=O)O[C@H]1C(=O)[C@@]2(C)[C@H]([C@H](OC(=O)c3ccccc3)[C@]3(O)C[C@H](OC(=O)[C@H](O)[C@@H](NC(=O)c4ccccc4)c4ccccc4)C(C)=C1C3(C)C)[C@]1(OC(C)=O)CO[C@@H]1C[C@@H]2O [taxol]
- inhibition of / interaction with p-glycoprotein (p-glycoprotein [1]): interacted with p-glycoprotein
- antitumor activity (tumors): activity against malignant melanoma and carcinoma of the ovary

Structure (SMILES): CC[C@@]1(O)C(=O)OCc2c1cc1n(c2=O)Cc2cc3c(CN(C)C)c(O)ccc3nc2-1 [topotecan]
- activity in clonogenic assay [10]: exhibited activity in breast, ovarian, non-small cell lung, colorectal, gastric and renal cell carcinomas

Structure (SMILES): OCCN1CCN(CC/C=C2\c3ccccc3Sc3ccc(C(F)(F)F)cc32)CC1 [trans-flupenthixol]
- reversal of drug resistance [4]: reversed cellular resistance to various drugs only in p-glycoprotein expressing cell lines; also recorded: fully reversed resistance to doxorubicin, vincristine, and colchicine
- potency for reversing MDR relative to verapamil ([4]; equimolar concentrations): two- to three-fold more potent
- clinical toxicity [5]: apparent lack of clinical toxicity

Structure (SMILES): CC[C@]1(O)C[C@@H]2CN(CCc3c([nH]c4ccccc34)[C@@](C(=O)OC)(c3cc4c(cc3OC)N(C)[C@H]3[C@@](O)(C(=O)OC)[C@H](OC(C)=O)[C@]5(CC)C=CCN6CC[C@]43[C@@H]65)C2)C1 [vinblastine]
- inhibition of / interaction with p-glycoprotein (p-glycoprotein [1]): p-glycoprotein inhibitor; also recorded: interacted with p-glycoprotein
- block of chloride channel / transport associated with p-glycoprotein [7]: blocked
- inhibition of p-glycoprotein-mediated transport (p-glycoprotein [6]): inhibitors
- plasma half-life, first phase ([2]; human, in vivo, iv): approximately 1 hours
- plasma half-life, second phase ([2]; human, in vivo, iv): ~20 h
- Cmax ([2]; human, in vivo): ~400 nM
- excreted unchanged (urine) ([2]; human, in vivo): Approximately 15%
- fecal excretion ([2]; human, in vivo): about 10%
- plasma protein binding (plasma proteins): bind to plasma proteins

Structure (SMILES): CC[C@]1(O)C[C@H]2CN(CCc3c([nH]c4ccccc34)[C@@](C(=O)OC)(c3cc4c(cc3OC)N(C=O)[C@H]3[C@@](O)(C(=O)OC)[C@H](OC(C)=O)[C@]5(CC)C=CCN6CC[C@]43[C@@H]65)C2)C1 [vincristine]
- inhibition of p-glycoprotein (p-glycoprotein [1]; 10 μM): 95%
- inhibition of / interaction with p-glycoprotein (p-glycoprotein [1]): p-glycoprotein inhibitor
- p-glycoprotein inhibition relative to comparator (p-glycoprotein [1]; vs verapamil, cyclosporine A, progesterone or anthracycline analogues): more potent than anthracycline analogues
- oral absorption ([2]; oral): Unpredictable absorption
- half-life ([2]; plasma or terminal half-life): about 24 hours
- Cmax ([2]; read-out: peak concentration in plasma, usual clinical doses): ~400 nM
- plasma protein binding (plasma proteins): bind to plasma proteins
